The assay concerns P388 leukemia ip, CD2F1 mice, survival T/C. Put plainly: NCI In Vivo Anticancer Drug Screen. Data for tumor model P388 Leukemia (intraperitoneal) in CD2F1 (CDF1) mice. Particulars: endpoint: median survival time, higher = longer survival. A digest of the protocol: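 Mice carrying the transplanted tumor received test compound or vehicle. Survival was recorded in each group, and the value is the treated-group measurement divided by that of the vehicle-treated control group.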

Where [1] appears, read: dose: 60.0 mg/kg/injection, schedule: Q01DX005 (ip), vehicle: saline with Tween-80.
[2] abbreviates: dose: 120.0 mg/kg/injection, schedule: Q01DX005 (ip), vehicle: saline with Tween-80.
Setting [3] is: dose: 240.0 mg/kg/injection, schedule: Q01DX005 (ip), vehicle: saline with Tween-80.
Setting [4] is: dose: 50.0 mg/kg/injection, schedule: Q01DX005 (ip), vehicle: saline with Tween-80.
Setting [5] is: dose: 100.0 mg/kg/injection, schedule: Q01DX005 (ip), vehicle: saline with Tween-80.
Where [6] appears, read: dose: 200.0 mg/kg/injection, schedule: Q01DX005 (ip), vehicle: saline with Tween-80.
The mark [7] stands for this setting: dose: 50.0 mg/kg/injection, schedule: Q01DX009 (ip), vehicle: saline with Tween-80.
Setting [8] is: dose: 100.0 mg/kg/injection, schedule: Q01DX009 (ip), vehicle: saline with Tween-80.
Setting [9] is: dose: 200.0 mg/kg/injection, schedule: Q01DX009 (ip), vehicle: saline with Tween-80.
Where [10] appears, read: dose: 100.0 mg/kg/injection, schedule: Q04DX003 (ip), vehicle: saline with Tween-80.
The mark [11] stands for this setting: dose: 200.0 mg/kg/injection, schedule: Q04DX003 (ip), vehicle: saline with Tween-80.
Setting [12] is: dose: 100.0 mg/kg/injection, schedule: Q04DX003 (ip), vehicle: saline.
The mark [13] stands for this setting: dose: 50.0 mg/kg/injection, schedule: Q01DX005 (ip), vehicle: Klucel (hydroxypropylcellulose) (HPC).
Setting [14] is: dose: 100.0 mg/kg/injection, schedule: Q01DX005 (ip), vehicle: Klucel (hydroxypropylcellulose) (HPC).
The mark [15] stands for this setting: dose: 200.0 mg/kg/injection, schedule: Q01DX005 (ip), vehicle: Klucel (hydroxypropylcellulose) (HPC).
Where [16] appears, read: dose: 200.0 mg/kg/injection, schedule: Q04DX003 (ip), vehicle: saline.
The mark [17] stands for this setting: dose: 10.0 mg/kg/injection, schedule: Q01DX009 (ip), vehicle: Klucel (hydroxypropylcellulose) (HPC).

We go through 27 compounds from PubChem BioAssay AID330 (DTP/NCI, 2004).

“And” between values parts separate entries of the source, which are not always exact repeats. Equal entries are not always repeated. Toxic doses and inconclusive results are not listed.

`CC(=O)c1c(CO[N+](=O)[O-])n([O-])c2ccccc2[n+]1=O`: the T/C is, setting by setting: under setting [1], 106 % of control; under setting [2], 104 % of control.

`COc1cccc2c1C(=O)c1c(O)c3c(c(O)c1C2=O)C[C@@](O)(CO)C[C@@H]3OC1CC(N)C(O)C(C)O1` (stereo partly drawn): the T/C (dose: 0.56 mg/kg/injection, schedule: Q04DX003 (ip), vehicle: water) is 109 % of control; the T/C (dose: 0.78 mg/kg/injection, schedule: Q01DX009 (ip), vehicle: water) was 167 % of control; the T/C (dose: 1.13 mg/kg/injection, schedule: Q04DX003 (ip), vehicle: water) is 104 % of control; the T/C (dose: 1.56 mg/kg/injection, schedule: Q01DX009 (ip), vehicle: water) was 167 % of control and 183 % of control; the T/C (dose: 2.25 mg/kg/injection, schedule: Q04DX003 (ip), vehicle: water) was 109 % of control and 118 % of control; the T/C (dose: 4.5 mg/kg/injection, schedule: Q04DX003 (ip), vehicle: water) was 115 % of control and 123 % of control. The T/C by setting is: (dose: 6.25 mg/kg/injection, schedule: Q01DX009 (ip), vehicle: water) 88 % of control; (dose: 9.0 mg/kg/injection, schedule: Q04DX003 (ip), vehicle: water) 121 % of control; (dose: 18.0 mg/kg/injection, schedule: Q04DX003 (ip), vehicle: water) 119 % of control and 123 % of control; (dose: 36.0 mg/kg/injection, schedule: Q04DX003 (ip), vehicle: water) 97 % of control.

`O=C(Nc1ccc(C(=O)O)c(O)c1)Nc1ccccc1C(F)(F)F`: the T/C is 103 % of control under setting [1], 90 % of control under setting [2] and 103 % of control under setting [3].

Consider `OCCN1CCOC(O)(c2cccc(C(F)(F)F)c2)C1` (stereo not drawn), for which the T/C is 101 % of control under setting [4], 95 % of control under setting [5] and 96 % of control under setting [6].

With `Cc1ccc(S(=O)(=O)OCC(COS(=O)(=O)c2ccc(C)cc2)C(C)(C)C)cc1`, the T/C is 101 % of control under setting [4], 104 % of control under setting [5] and 107 % of control under setting [6].

For the compound `O=C(CN1C(=O)c2ccccc2C1=O)NC(Cc1ccccc1)C(=O)O` (stereo not drawn), the T/C is, setting by setting: under setting [7], 95 % of control; under setting [8], 105 % of control; under setting [9], 102 % of control; (dose: 400.0 mg/kg/injection, schedule: Q01DX009 (ip), vehicle: saline with Tween-80) 95 % of control.

For the compound `Cc1cc(C(=O)c2ccccc2)on1`, the T/C is 104 % of control (dose: 100.0 mg/kg/injection, schedule: Q04DX003 (ip), vehicle: Klucel (hydroxypropylcellulose) (HPC)); 100 % of control (dose: 200.0 mg/kg/injection, schedule: Q04DX003 (ip), vehicle: Klucel (hydroxypropylcellulose) (HPC)); 100 % of control (dose: 400.0 mg/kg/injection, schedule: Q04DX003 (ip), vehicle: Klucel (hydroxypropylcellulose) (HPC)).

As for `CCCCN(CCCC)P1(=O)OP(=O)(N(CCCC)CCCC)OP(=O)(N(CCCC)CCCC)O1` (stereo not drawn), the T/C (dose: 12.5 mg/kg/injection, schedule: Q01DX005 (ip), vehicle: saline) was 97 % of control; the T/C (dose: 25.0 mg/kg/injection, schedule: Q01DX005 (ip), vehicle: saline) is 101 % of control; the T/C (dose: 50.0 mg/kg/injection, schedule: Q01DX005 (ip), vehicle: saline) is 101 % of control and 96 % of control.

For `COc1ccc2c(c1)CC[C@@H]1[C@@H]2CC[C@@]2(C)[C@H]1CC[C@@]2(O)C(F)=C(F)F`, the T/C is, setting by setting: under setting [10], 88 % of control; under setting [11], 88 % of control.

For `O=[n+]1c2c(n([O-])c3ccccc31)C(Br)CCCC2Br` (stereo not drawn), the T/C reads like this: under setting [1], 100 % of control; under setting [2], 95 % of control; under setting [3], 89 % of control.

Turning to `CN(C)c1ccc(C2NC(C(=O)O)CS2)cc1` (stereo not drawn), the T/C (dose: 50.0 mg/kg/injection, schedule: Q01DX009 (ip), vehicle: suspension in saline) was 91 % of control; the T/C (dose: 100.0 mg/kg/injection, schedule: Q01DX009 (ip), vehicle: suspension in saline) is 100 % of control; the T/C (dose: 200.0 mg/kg/injection, schedule: Q01DX009 (ip), vehicle: suspension in saline) was 100 % of control.

Take `O=C(O)C(=O)O.OO.OO.OO.[Nb]`: the T/C runs as follows: (dose: 100.0 mg/kg/injection, schedule: Q01DX009 (ip), vehicle: saline) 123 % of control; under setting [12], 100 % of control.

Take `COc1ccc(/C=N/Nc2nnc3c(n2)[nH]c2ccc(Br)cc23)cc1`: the T/C runs as follows: (dose: 100.0 mg/kg/injection, schedule: Q04DX002 (ip), vehicle: saline with Tween-80) 100 % of control; (dose: 200.0 mg/kg/injection, schedule: Q04DX002 (ip), vehicle: saline with Tween-80) 109 % of control; (dose: 400.0 mg/kg/injection, schedule: Q04DX002 (ip), vehicle: saline with Tween-80) 110 % of control.

`CC(=O)Oc1cccn2c(C(=O)C(=O)c3ccc4c(OC(C)=O)cccn34)ccc12`: the T/C runs as follows: under setting [13], 92 % of control; under setting [14], 86 % of control; under setting [15], 94 % of control.

For `CN1CCc2c3c(c4c(c21)CCN4C)CCc1ccccc1-3`, the T/C reads like this: under setting [13], 104 % of control; under setting [14], 101 % of control; under setting [15], 96 % of control.

In the case of `CC1(C)SC(=O)C(=O)S1`, the T/C reads like this: under setting [12], 103 % of control; under setting [16], 93 % of control.

As to `O=C(N/N=C\c1ccc(N(CCCl)CCCl)cc1)c1cccnc1`, the T/C by setting is: (dose: 12.5 mg/kg/injection, schedule: Q01DX009 (ip), vehicle: Klucel (hydroxypropylcellulose) (HPC)) 107 % of control; (dose: 25.0 mg/kg/injection, schedule: Q01DX009 (ip), vehicle: Klucel (hydroxypropylcellulose) (HPC)) 107 % of control.

As for `CC(=O)c1ccc2c(=O)n3c4ccccc4nc3c3cccc1c23`, the T/C is, setting by setting: under setting [7], 118 % of control; under setting [8], 104 % of control.

As to `COc1ccccc1/C=C/C1=C(C)CCC(c2ccccc2OC)C1C` (stereo not drawn), the T/C is 90 % of control under setting [4], 89 % of control under setting [5] and 89 % of control under setting [6].

`CCCCC(Nc1nncs1)Nc1nncs1`: the T/C is, setting by setting: under setting [1], 90 % of control; under setting [2], 102 % of control; under setting [3], 96 % of control.

Consider `O=[N+]([O-])c1cc2[nH]cnc2c([N+](=O)[O-])c1Nc1ccc(O)cc1`, for which the T/C was 87 % of control under setting [10]; 95 % of control under setting [11]; 101 % of control (dose: 400.0 mg/kg/injection, schedule: Q04DX003 (ip), vehicle: saline with Tween-80).

Turning to `Cc1cccc(NC(=S)NC2C(=O)Nc3ccccc32)c1` (stereo not drawn), the T/C reads like this: under setting [1], 102 % of control; under setting [2], 100 % of control; under setting [3], 98 % of control.

For `COc1ccc([N+](=O)[O-])c(/C=C/C(=O)c2ccccn2)c1`, the T/C by setting is: (dose: 12.5 mg/kg/injection, schedule: Q01DX009 (ip), vehicle: distilled water + Tween-80) 98 % of control; (dose: 25.0 mg/kg/injection, schedule: Q01DX009 (ip), vehicle: distilled water + Tween-80) 100 % of control; (dose: 50.0 mg/kg/injection, schedule: Q01DX009 (ip), vehicle: distilled water + Tween-80) 97 % of control; (dose: 100.0 mg/kg/injection, schedule: Q01DX009 (ip), vehicle: distilled water + Tween-80) 98 % of control; (dose: 200.0 mg/kg/injection, schedule: Q01DX009 (ip), vehicle: distilled water + Tween-80) 104 % of control.

As to `COc1cc2c(c(OC)c1O)-c1ccc(OC)c(=O)cc1[C@@H](NC(C)=O)CC2`, under setting [17], the T/C is 150 % of control and 175 % of control.

With `COc1cc2ccc(CC(N)=O)cc2cc1OC`, the T/C was 118 % of control under setting [8] and 109 % of control under setting [9].

`CC1=C(/C=C/Cl)CC(Cl)C(C)(Cl)C1` (stereo not drawn): the T/C (dose: 2.5 mg/kg/injection, schedule: Q01DX009 (ip), vehicle: Klucel (hydroxypropylcellulose) (HPC)) was 102 % of control; the T/C (dose: 5.0 mg/kg/injection, schedule: Q01DX009 (ip), vehicle: Klucel (hydroxypropylcellulose) (HPC)) was 102 % of control; the T/C under setting [17] was 93 % of control; the T/C (dose: 20.0 mg/kg/injection, schedule: Q01DX009 (ip), vehicle: Klucel (hydroxypropylcellulose) (HPC)) is 99 % of control.

`Cc1nc2ccncn2n1`: the T/C is, setting by setting: under setting [12], 99 % of control; under setting [16], 95 % of control; (dose: 400.0 mg/kg/injection, schedule: Q04DX003 (ip), vehicle: saline) 93 % of control.
